From patent US12195456B1, “Single molecules having mixed CDK4, CDK6, PLK1 targeting properties” (priority 2019, dated 2025)
“Also recorded” adds a separate entry of the source.

Columns and labels:
[1] = system: Rb-positive SUM159 TNBC cells; assay: Apoptosis assay (AnnexinV/PI), SUM159; type: cell-based, human
Experimental: (§1) Apoptosis assay: Apoptotic rates were analyzed and quantified by flow cytometry following AnnexinV/PI staining on SUM159 and MDA-MB-468 breast cancer cells.

SUM149 TNBC cells = assay: In vitro growth inhibition (SRB), SUM149; type: cell-based
Experimental: (§2) In vitro growth inhibition assay: Growth inhibitory potency was evaluated using the SRB assay. Briefly, cells were plated in 96-well in triplicate and treated with drugs (0.0065 μM to 100 μM) 24 h after seeding. Following drug treatment, the cells were fixed using 50 μl of cold TCA (50%) for 1 h at 4° C., washed five times with tap water, and stained for 30 min at room temperature with SRB (0.4%) in acetic acid (0.5%). The plates were subsequently rinsed five times with acetic acid (1%) and allowed to air dry. The resulting purple residue was dissolved in Tris base (200 μl, 10 mM), and optical densities read on a ELx808 BioTek microplate reader. […] values were determined using the GraphPad Prism software.

[2] = system: panel of 50 different kinases; assay: Kinase profiling against a panel of 50 kinases at 100 nM; type: biochemical; settings: 100 nM range, except PLK1
From the text: (§3) As expected, at these high concentrations, the relative % of inhibition is saturated at nearly 100% for both CDK4 and CDK6. To validate CDK4/6 and PLK1 as functional KP108 targets, we then assessed CDK4-mediated Rb phosphorylation (Ser780) and PLK1-mediated autophosphorylation (Thr210) in vitro.
(§4) […] This was outsourced to Reaction Biology Corporation, a biopharmaceutical company focused on the development of kinase inhibitors (http://www.reactionbiology.com/webapps/site/).

[3] = system: CDK4-mediated Rb phosphorylation (Ser780); assay: Immunoblotting of Rb phosphorylation in TNBC cells; type: cell-based
From the text: as §3
(§5) As PLK1 is overexpressed in 80% of metastatic breast cancers and the fact that it acts by blocking the G2-M phase of the cell cycle, this provides an attractive added value for KP108, further expanding its potential tumor growth inhibitory capacity.
(§6) Western Blot After washing the infected cells with ice-cold PBS twice, 300 μL of ice-cold cell lysis buffer (1M Tris-HCl, 5M NaCl, 10% Triton, 100 mM EDTA, 100 mM Na3VO4, ×100 Protease Inhibitor, 10× Phosphatase Inhibitor) was added to the dish. All the adherent cells were scraped off the dish and the cell suspension were transferred to a microcentrifuge tube. The cell suspension was left to incubated on ice for 10 min and the cell lysate mixture was centrifuge at 12,000 RPM for 20 mins at 4° C. The supernatant was transferred to a new microcentrifuge tube on ice. The protein concentration was determined using the BCA Kit (ThermoFisher). The lysate samples were diluted in 5×SDS Buffer and were heated at 95° C. for 5 min. The ladder and the samples were loaded into the wells of a SDS PAGE gel and the gel was then run at 100V. […]

[4] = molecular target: Polo-like Kinase-1 (PLK1) (Homo sapiens, UniProt P53350); assay: Kinase profiling / inhibition of PLK1; type: biochemical; settings: panel of 50 kinases
From the text: as §3, §4

[5] = system: CSCs (tumorsphere formation); assay: Tumorsphere assay; type: cell-based; settings: in vitro
Experimental: Tumorsphere assays: Monolayer cells were enzymatically dissociated into single cells with trypsin-EDTA. Cells were plated at 10,000 cells per well in a 24-well low-attachment plate (Coming). Cells were grown for 7 days in DMEM/F12 supplemented with B27 (Invitrogen) in the presence of 10 ng/ml EGF and 10 ng/ml bFGF. Tumorsphere-forming efficiency was calculated as the number of spheres divided by the number of singles cells seeded, expressed as a percentage.

SUM159 lung metastasis = assay: Preclinical lung metastasis model (tail vein injection of TNBC cells); type: in vivo; settings: NSG mice, daily I.P. 50 mg/kg for 2 weeks
Experimental: To then functionally assess our lead in a preclinical model of tumor metastasis, immune-deficient non-obese diabetic scid gamma (NSG) mice were injected intravenously with 10^6 TNBC cells. […] Lungs were collected and stained with Bouin's solution and, the numbers of lung metastatic nodules were quantified. In vivo studies: All mice were housed and handled in accordance to the approved guidelines of the Canadian Council on Animal Care (CCAC) “Guide to the Care and Use of Experimental Animals” and under the conditions and procedures approved by the Animal Care Committee of McGill University (AUP #7497). The NSG mouse breeders were purchased from Jackson Laboratory (California, US). Female and male NSG mice between 7 and 9 weeks of age were bred and maintained in the animal facility of the Research Institute of the McGill University Health Center, as per the guidelines of the McGill University Animal Care Committee. Intravenous injection model: cells (1×106/each) were injected by tail vein route to develop lung metastases. The mice were euthanized with a maximum of 42-day (SUM159) post cancer cells injection. The lung tissues were counted for metastases nodules post Bouin's solution fixation.

[6] = system: cell lines representing different models of solid tumors (breast, prostate and pancreatic cancers); assay: Growth inhibition in cell lines representing different solid tumors; type: cell-based; settings: all tumor types tested: breast
Experimental: as §2

[7] = system: SUM159 triple negative breast cancer cells; assay: ALDH+ cancer stem cell numbers (ALDEFLUOR, flow cytometry), SUM159; type: cell-based, human; settings: TNBC (SUM159); equimolar concentrations vs existing CDK4/6 inhibitors
Experimental: Flow cytometry was used to measure the ALDH+ CSC numbers, as previously described^6,11-13. […] As a result, KP108 was further selected as the first lead compound.
ALDEFLUOR assay was performed as described in the manufacturer's protocol, 1×10^6 SUM159 cells were centrifuged and resuspended in 1 ml ALDH assay buffer. 5 μl substrate was added into the cell suspension. For negative control, 500 μl cell suspension were then transferred into a new tube containing 5 μl DEAB. Cells were then incubated for 40 min at 37° C. Percentage of ALDH+ cells were analyzed with Accuri C6 flow cytometer and Flowjo software.

[8] = system: SUM159 Rb-positive TNBC cells; assay: Cell cycle progression, Rb-positive TNBC cells; type: cell-based, human
CDK4/cyclin D3 = CDK4/cyclin D3 (Homo sapiens, UniProt P11802); assay: In vitro kinase assay, CDK4/cyclin D3; type: biochemical
From the text: (§7) In vitro kinase profiling: To assess on-target and off-target kinase affinity and specificity of our lead inhibitor KP108 in a full kinome profiling, we will test the lead compound against Reaction Biology Corporation four panels (Wild Type. Panel (374 kinases), Mutant Panel (232 kinases), Atypical Panel (20 kinases), Lipid Panel (17 lipid kinases). This was outsourced to Reaction Biology Corporation, a biopharmaceutical company focused on the development of kinase inhibitors (http://www.reactionbiology.com/webapps/site/).

SUM159 TNBC xenografts = assay: Orthotopic SUM159 TNBC xenograft (mammary fat pad); type: in vivo, NSG mice
Experimental: We further assessed our compound on breast cancer tumorigenesis in vivo, through orthotopic transplantation of SUM159 TNBC cells into the mammary fat pad of NSG mice. […] Drugs were administered through i.p. daily injections for two weeks (50 mg/kg) and tumor volumes were measured, as per our team optimized protocol^10,19.
In vivo studies: All mice were housed and handled in accordance to the approved guidelines of the Canadian Council on Animal Care (CCAC) “Guide to the Care and Use of Experimental Animals” and under the conditions and procedures approved by the Animal Care Committee of McGill University (AUP #7497). The NSG mouse breeders were purchased from Jackson Laboratory (California, US). Female and male NSG mice between 7 and 9 weeks of age were bred and maintained in the animal facility of the Research Institute of the McGill University Health Center, as per the guidelines of the McGill University Animal Care Committee.
Xenograft model: Human breast cancer cells, SUM159 (1×10^6/mouse) were diluted in 1:1 with Matrigel and then inoculated in 8-week old, female NSG mice by mammary fat pad route to generate breast cancer tumor. Tumor sizes were measured with a digital electronic caliper three times per week to reach maximum volume of 1000 mm3 prior to euthanasia. Tumor volumes were calculated according to the following formula: [4/3×π×(Length/2)×(Width/2)2] to generate a growth curve.

[9] = system: Rb-deficient MDA-MB-438 cell line; assay: In vitro growth inhibition (SRB), Rb-deficient MDA-MB-438; type: cell-based
Experimental: as §2

CDK6/cyclin D3 = CDK6/cyclin D3 (Homo sapiens, UniProt Q00534); assay: In vitro kinase assay, CDK6/cyclin D3; type: biochemical
From the text: as §7

[10] = system: PLK1-mediated autophosphorylation (Thr210); assay: Immunoblotting of PLK1 autophosphorylation in TNBC cells; type: cell-based
From the text: as §3, §5, §6

pancreatic cancer cells = assay: In cellulo testing, pancreatic cancer; type: cell-based
Experimental: (§8) Cell Culture: All the cell lines used were cultured at 37° C. in 5% CO2. HEK293T and MDA were maintained in Dulbecco's Modified Eagle Medium (DMEM) (Wisent Bio) with 10% fetal bovine serum (FBS) (Gibco). SUM159 was maintained in Ham's F-12 media with 5% FBS, 5 μg/mL insulin and 1 μg/mL hydrocortisone (Wisent Bio). HPAF-II was maintained in Eagle's Minimum Essential Medium (EMEM) (Wisent Bio) with 10% FBS. PC-3 was maintained in F-12K medium with 10% FBS.
as §2

PLK family members = assay: Effects on PLK family members; type: biochemical
[11] = system: SKBR3 HER2+ breast cancer cells; assay: ALDH+ cancer stem cell numbers (ALDEFLUOR, flow cytometry), SKBR3; type: cell-based; settings: equimolar concentrations vs existing CDK4/6 inhibitors
prostate cancer cells = assay: In cellulo testing, prostate cancer; type: cell-based
Experimental: as §8, §2

MDA-MB-231 TNBC cells = assay: In vitro growth inhibition (SRB), MDA-MB-231; type: cell-based
Experimental: as §2

[12] = system: Rb-deficient MDA-MB-468 TNBC cells; assay: Apoptosis assay (AnnexinV/PI), MDA-MB-468; type: cell-based
Experimental: as §1

[13] = system: MDA-MB-468 Rb-deficient TNBC cells; assay: Cell cycle progression, Rb-deficient TNBC cells; type: cell-based

Chain of CDK4/cyclin D3 (P11802 whole entry): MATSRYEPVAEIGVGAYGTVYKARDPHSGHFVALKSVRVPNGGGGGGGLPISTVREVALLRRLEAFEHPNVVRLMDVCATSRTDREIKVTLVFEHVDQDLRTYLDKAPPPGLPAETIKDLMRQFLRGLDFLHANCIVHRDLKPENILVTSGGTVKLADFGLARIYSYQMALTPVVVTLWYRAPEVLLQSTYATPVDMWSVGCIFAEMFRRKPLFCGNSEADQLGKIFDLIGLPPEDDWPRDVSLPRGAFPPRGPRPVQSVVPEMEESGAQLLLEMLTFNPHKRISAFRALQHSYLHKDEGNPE
Chain of CDK4/cyclin D3 (P30281 whole entry partner): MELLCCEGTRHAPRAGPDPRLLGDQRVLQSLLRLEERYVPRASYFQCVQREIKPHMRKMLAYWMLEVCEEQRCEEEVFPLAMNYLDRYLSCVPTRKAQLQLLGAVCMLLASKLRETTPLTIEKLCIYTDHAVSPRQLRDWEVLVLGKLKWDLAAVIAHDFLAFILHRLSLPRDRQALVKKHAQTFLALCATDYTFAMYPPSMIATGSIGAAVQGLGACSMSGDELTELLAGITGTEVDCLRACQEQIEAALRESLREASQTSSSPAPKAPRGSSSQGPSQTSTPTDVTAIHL
Chain of CDK6/cyclin D3 (Q00534 whole entry): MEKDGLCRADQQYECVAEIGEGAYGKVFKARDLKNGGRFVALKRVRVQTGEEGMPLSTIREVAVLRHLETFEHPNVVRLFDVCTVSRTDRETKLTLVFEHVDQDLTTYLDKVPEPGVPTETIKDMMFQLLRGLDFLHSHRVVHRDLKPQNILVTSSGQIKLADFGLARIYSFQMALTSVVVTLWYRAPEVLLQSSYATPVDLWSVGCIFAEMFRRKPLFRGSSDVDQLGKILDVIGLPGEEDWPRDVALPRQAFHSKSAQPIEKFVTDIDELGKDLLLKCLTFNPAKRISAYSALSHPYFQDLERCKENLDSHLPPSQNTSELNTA
Chain of CDK6/cyclin D3 (P30281 whole entry partner): as the sequence (P30281 whole entry partner) above
Chain of Polo-like Kinase-1 (PLK1) (P53350 whole entry): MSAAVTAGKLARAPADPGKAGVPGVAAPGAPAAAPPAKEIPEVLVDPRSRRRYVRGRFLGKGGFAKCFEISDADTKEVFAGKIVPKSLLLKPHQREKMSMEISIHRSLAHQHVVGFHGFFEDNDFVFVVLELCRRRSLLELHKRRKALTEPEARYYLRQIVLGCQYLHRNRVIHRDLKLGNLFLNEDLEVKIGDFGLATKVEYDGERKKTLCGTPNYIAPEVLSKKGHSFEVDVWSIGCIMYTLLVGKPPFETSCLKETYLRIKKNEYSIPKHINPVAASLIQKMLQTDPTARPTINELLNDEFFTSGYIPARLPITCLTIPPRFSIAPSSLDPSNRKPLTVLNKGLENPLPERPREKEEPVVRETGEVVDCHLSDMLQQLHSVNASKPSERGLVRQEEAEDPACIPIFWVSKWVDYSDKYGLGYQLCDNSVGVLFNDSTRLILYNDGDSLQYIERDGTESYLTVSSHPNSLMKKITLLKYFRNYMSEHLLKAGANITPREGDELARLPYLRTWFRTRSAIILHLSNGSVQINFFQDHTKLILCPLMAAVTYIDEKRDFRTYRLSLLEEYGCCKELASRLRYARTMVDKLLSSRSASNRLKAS

Q: `C=CC(=O)Nc1ccc(C(=O)N2CCN(c3ccc(Nc4ncc5c(C)c(C(C)=O)c(=O)n(C6CCCC6)c5n4)nc3)CC2)cc1` [KP108, N-(4-(4-(6-((6-acetyl-8-cyclopentyl-5-methyl-7-oxo-7,8-dihydropyrido[2,3-d]pyrimidin-2-yl)amino}pyridin-3-yl)piperazine-1-carbonyl)phenyl)acrylamide] was tested. Which pro-apoptotic effect [1] did it give?
A: The pro-apoptotic effect was “significant pro-apoptotic effect”.

Q: And the activity in cellulo (SUM149 TNBC cells)?
A: Its activity in cellulo is “great activity in cellulo”.

Q: What about the “off-target cross-reactivity in kinase panel” value [2] of the same compound?
A: The value was “no or little cross-reactivity”.

Q: And the “block of Rb phosphorylation (Ser780)” value [3]?
A: The value was “efficiently block phosphorylation”.

Q: And the “inhibition of PLK1” value [4]?
A: Its value is “efficiently inhibit; also recorded: highlighting PLK1 as a potential KP108 target”.

Q: And the “reduction of tumorsphere formation” value [5]?
A: The value was “superior efficacy in reducing tumorsphere formation”.

Q: And the “lung colonization / lung metastatic nodules” value (SUM159 lung metastasis)?
A: The value was “great efficacy and sustained activity; also recorded: significantly prevented, to almost completely block lung colonization”.

Q: And the “IC50 compared with palbociclib” value [6]?
A: The value was “lower IC50in all tumor types tested”.

Q: What about the “elimination of ALDH+ CSCs” value [7] of the same compound?
A: Its value is “significant superior efficacy; also recorded: nearly maximal efficacy”.

Q: And the “effect on cell cycle progression” value [8]?
A: Its value is “induce G1 arrest”.

Q: And the “selectivity to CDK4 than CDK6” value (CDK4/cyclin D3; CDK4 vs CDK6)?
A: The value was 26 times.

Q: And the IC50 (CDK4/cyclin D3; in vitro kinase assay)?
A: Its IC50 is 0.77 nM.

Q: What about the “relative % of inhibition, CDK4” value (CDK4/cyclin D3; kinase panel, 100 nM range) of the same compound?
A: The value was ~100%.

Q: And the “primary tumor development (tumor volume)” value (SUM159 TNBC xenografts; NSG mice, i.p. daily for two weeks, 50 mg/kg)?
A: Its value is “great efficacy and sustained activity; also recorded: great efficacy in preventing primary tumor development”.

Q: And the “tumor growth once injections were stopped” value (SUM159 TNBC xenografts; after end of the two-week 50 mg/kg i.p. treatment)?
A: The value was “growth inhibitory effects sustained over time, even once injections were stopped”.

Q: What about the “animal health / weight” value (SUM159 TNBC xenografts; treated mice, 50 mg/kg i.p. daily) of the same compound?
A: The value was “did not affected animal health”.

Q: What about the activity in cellulo [9] of the same compound?
A: The activity in cellulo was “great activity in cellulo”.

Q: And the IC50 (CDK6/cyclin D3; in vitro kinase assay)?
A: Its IC50 is 20.4 nM.

Q: What about the “relative % of inhibition, CDK6” value (CDK6/cyclin D3; kinase panel, 100 nM range) of the same compound?
A: The value was ~100%.

Q: And the “block of PLK1 autophosphorylation (Thr210)” value [10]?
A: The value was “efficiently block phosphorylation”.

Q: What about the activity in cellulo (pancreatic cancer cells) of the same compound?
A: The activity in cellulo was “very active”.

Q: What about the “effects on other PLK family members” value (PLK family members) of the same compound?
A: Its value is “only targets PLK1”.

Q: And the “elimination of ALDH+ CSCs” value [11]?
A: The value was “significant superior efficacy; also recorded: nearly maximal efficacy”.

Q: And the activity in cellulo (prostate cancer cells)?
A: Its activity in cellulo is “very active”.

Q: And the activity in cellulo (MDA-MB-231 TNBC cells)?
A: The activity in cellulo was “great activity in cellulo”.

Q: What about the pro-apoptotic effect [12] of the same compound?
A: The pro-apoptotic effect was “significant pro-apoptotic effect; also recorded: almost complete cell death”.

Q: What about the “effect on cell cycle progression” value [13] of the same compound?
A: The value was “efficiently induce G2 arrest; also recorded: dose-dependent increase in the G2 phase”.
